Results from article PMC4700456, “Receptor for detection of a Type II sex pheromone in the winter moth Operophtera brumata” (Scientific Reports, 2016).

Target: T1, ObruOR1 (co-expressed with Obru\Orco) (Operophtera brumata, UniProt A0A140YWR3)
T1 construct: full-length, ObruOR1 430 aa, Obru\Orco 472 aa; pCS2+ vector, cRNAs co-injected in Xenopus laevis oocytes; with Odorant receptor co-receptor
T1 sequence (A0A140YWR3 1-430): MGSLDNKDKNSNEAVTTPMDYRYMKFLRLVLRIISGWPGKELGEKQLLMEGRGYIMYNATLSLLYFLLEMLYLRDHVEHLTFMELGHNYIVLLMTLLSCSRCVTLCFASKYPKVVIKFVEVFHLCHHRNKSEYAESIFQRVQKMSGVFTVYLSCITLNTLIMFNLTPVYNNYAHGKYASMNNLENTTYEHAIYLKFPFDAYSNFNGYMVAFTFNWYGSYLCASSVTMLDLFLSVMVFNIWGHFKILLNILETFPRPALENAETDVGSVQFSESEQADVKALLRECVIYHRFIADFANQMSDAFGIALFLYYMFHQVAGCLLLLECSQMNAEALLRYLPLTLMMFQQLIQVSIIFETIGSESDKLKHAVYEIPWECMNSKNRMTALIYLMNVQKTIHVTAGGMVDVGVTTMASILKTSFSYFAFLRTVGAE
T1 sequence (A0A140YWR4 1-472 partner): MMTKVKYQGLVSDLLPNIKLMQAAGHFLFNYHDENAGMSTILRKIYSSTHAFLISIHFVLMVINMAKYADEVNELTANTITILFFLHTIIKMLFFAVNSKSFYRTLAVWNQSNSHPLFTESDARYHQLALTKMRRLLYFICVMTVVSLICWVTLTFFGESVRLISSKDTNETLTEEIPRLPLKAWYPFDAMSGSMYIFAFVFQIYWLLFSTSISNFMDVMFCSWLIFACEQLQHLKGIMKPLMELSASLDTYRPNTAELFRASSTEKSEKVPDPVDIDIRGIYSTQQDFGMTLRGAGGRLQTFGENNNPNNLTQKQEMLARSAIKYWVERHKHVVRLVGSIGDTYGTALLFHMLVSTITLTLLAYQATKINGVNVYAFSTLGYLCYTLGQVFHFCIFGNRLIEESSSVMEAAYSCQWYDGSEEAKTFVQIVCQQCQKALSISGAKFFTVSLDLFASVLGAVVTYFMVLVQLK
Experiment: two-electrode voltage clamp, Xenopus oocytes
Type: cell-based
Conditions: agonist, holding potential -80 mV, Ringer's buffer, dose-response

C=C/C=C\C/C=C\C/C=C\CCCCCCCCC [1,3Z,6Z,9Z-19:H, (3Z,6Z,9Z)-1,3,6,9-nonadecatetraene] showed a threshold dose of 10 nM.
